Data as given in PubChem BioAssay (NCI).
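How tested: cells in 96-well plates exposed to compound for 48 hours at five concentrations. TGI is the concentration that stops growth completely.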

What was measured:
Test in all cases: NCI anticancer screen, dose series, 48 h
[1] = test system: NCI-H23 lung
[2] = test system: SNB-19 CNS
[3] = test system: MALME-3M melanoma
[4] = test system: KM12 colon
[5] = test system: OVCAR-3 ovarian
[6] = test system: SN12C renal
[7] = test system: SK-MEL-2 melanoma
[8] = test system: MCF7 breast
[9] = test system: T-47D breast
[10] = test system: SNB-75 CNS
[11] = test system: TK-10 renal
[12] = test system: NCI-H460 lung
[13] = test system: RPMI-8226 leukemia
[14] = test system: NCI/ADR-RES ovarian
[15] = test system: SK-MEL-28 melanoma
[16] = test system: PC-3 prostate
[17] = test system: OVCAR-4 ovarian
[18] = test system: MOLT-4 leukemia
[19] = test system: MDA-N
[20] = test system: SR leukemia
[21] = test system: SW-620 colon
[22] = test system: NCI-H522 lung
[23] = test system: SF-268 CNS
[24] = test system: A549 NSCLC
[25] = test system: DU-145 prostate
[26] = test system: SK-OV-3 ovarian
[27] = test system: CCRF-CEM leukemia
[28] = test system: UACC-257 melanoma
[29] = test system: CAKI-1 renal
[30] = test system: OVCAR-5 ovarian
[31] = test system: 786-0 renal
[32] = test system: HCT-15 colon
[33] = test system: HCC-2998 colon
[34] = test system: IGROV1 ovarian
[35] = test system: ACHN renal
[36] = test system: EKVX NSCLC
[37] = test system: SK-MEL-5 melanoma
[38] = test system: SF-295 CNS
[39] = test system: HOP-92 NSCLC
[40] = test system: M14 melanoma
[41] = test system: K-562 leukemia
[42] = test system: MDA-MB-435
[43] = test system: HL-60(TB) leukemia
[44] = test system: HCT-116 colon
[45] = test system: UO-31 renal
[46] = test system: UACC-62 melanoma
[47] = test system: LOX IMVI melanoma
[48] = test system: HOP-62 NSCLC
[49] = test system: HT29 colon
[50] = test system: HS 578T breast
[51] = test system: U251 CNS
[52] = test system: OVCAR-8 ovarian
[53] = test system: COLO 205 colon

CC(=O)c1c2c(cc3c1CC1(C3)Cc3cc4c(c(C(=O)O)c3C1)CCCC4)CCCC2 (stereo not drawn) (tested in a mixture with another compound)
TGI [1]: > 100 µM
TGI [2]: > 100 µM
TGI [3]: > 100 µM
TGI [4]: 59.7 µM
TGI [5]: 48.7 µM
TGI [6]: > 100 µM
TGI [7]: 60.5 µM
TGI [8]: > 100 µM
TGI [9]: > 100 µM
TGI [10]: > 100 µM
TGI [11]: > 100 µM
TGI [12]: 53.6 µM
TGI [13]: 89.3 µM
TGI [14]: > 100 µM
TGI [15]: > 100 µM
TGI [16]: > 100 µM
TGI [17]: > 100 µM
TGI [18]: 43.9 µM
TGI [19]: > 100 µM
TGI [20]: 53.8 µM
TGI [21]: > 100 µM
TGI [22]: > 100 µM
TGI [23]: > 100 µM
TGI [24]: > 100 µM
TGI [25]: > 100 µM
TGI [26]: > 100 µM
TGI [27]: 94.6 µM
TGI [28]: 74.3 µM
TGI [29]: > 100 µM
TGI [30]: > 100 µM
TGI [31]: > 100 µM
TGI [32]: > 100 µM
TGI [33]: 93.6 µM
TGI [34]: > 100 µM
TGI [35]: > 100 µM
TGI [36]: > 100 µM
TGI [37]: 63.7 µM
TGI [38]: > 100 µM
TGI [39]: 39.7 µM
TGI [40]: 96.2 µM
TGI [41]: > 100 µM
TGI [42]: > 100 µM
TGI [43]: 54.9 µM
TGI [44]: 72.4 µM
TGI [45]: 40.6 µM
TGI [46]: > 100 µM
TGI [47]: > 100 µM
TGI [48]: 44.6 µM
TGI [49]: > 100 µM
TGI [50]: > 100 µM
TGI [51]: 72.6 µM
TGI [52]: > 100 µM
TGI [53]: 68.4 µM
